Experimental data reported in US10526580B2, “Differentiated cell population of endothelial cells derived from human pluripotent stem cells, composition, system, kit and uses thereof” (BIOCANT-ASSOCIAÇÃO DE TRANSFERÊNCIA DE TECNOLOGIA, priority 2012, dated 2020).

How the values were obtained:
[1] = test system: microvessels formed by HUAECs; assay: Matrigel assay, disruption of vascular networks; type: cell-based, human; settings: 1 μM, 20 h, on top of Matrigel
Experimental: (§1) To test the 7-Cyclo properties in the disruption of vascular networks, microvessels of hESC-derived ECs, HUAECs and HAECs were formed on top of Matrigel and then exposed to the drug for 20 h.
(§2) A 24-well plate was coated with Matrigel (0.4 mL, BD Biosciences) per well and incubated at 37° C. for 30 min. Cells were seeded on top of the polymerized Matrigel at a concentration of 1×10^5 cells per 300 μL of EGM-2 medium. After 1 h of incubation at 37° C., an extra 1 mL of EGM-2 was added. After 12 h, medium supplemented with 7-Cyclo (0, 0.1 or 1 μM) was added. Cord formation was evaluated by phase contrast microscopy (Carl Zeiss International, Germany), at time 0, 3 h and 20 h after 7-Cyclo addition.

[2] = test system: microvessels formed by HAECs; assay: Matrigel assay, disruption of vascular networks; type: cell-based, human; settings: 1 μM, 20 h, on top of Matrigel
Experimental: as §1, §2

[3] = test system: microvessels of hESC-derived ECs; assay: Matrigel assay, disruption of vascular networks; type: cell-based, human; settings: 1 μM, 20 h, on top of Matrigel
Experimental: as §1, §2

[4] = test system: mouse aortic endothelial cells (mAEC); assay: Gene expression in mouse aortic endothelial cells after 7-Cyclo; type: cell-based
Experimental: To further validate the effects of 7-Cyclo at the embryonic vasculature, mouse embryonic ECs were incubated at day 12.5 (mAEC E12.5) and postnatal day 1 (p1) with 7-Cyclo (1 μM) for 24 h. […] In contrast, 7-Cyclo has no effect in p1 ECs. The degree of action of 7-Cyclo in mAEC E12.5 is similar to the one identified in hESC-derived ECs (FIG. 5C).
Total RNA from experimental groups was isolated using a protocol with TRIzol (Invitrogen) and RNeasy Minikit (Qiagen, Valencia). cDNA was prepared from 1 μg total RNA using Taqman Reverse transcription reagents (Applied Biosystems, CA). Quantitative PCR (qPCR) was performed using Power SYBR Green PCR Master Mix and the detection using an ABI PRISM 7500 Fast System (Applied Biosystems). Quantification of target genes was performed relative to the reference GAPDH gene: relative expression=2^[−(Ctsample^−CtGADPH^)]. The mean minimal cycle threshold values (Ct) were calculated from 4 reactions. In some cases, gene expression in each experimental group was normalized to the relative gene expression found in HUVECs, HUAECs or undifferentiated hESCs. Primer sequences are published in Table 7 of expanded materials and methods.

effect on gene expression ([4]; postnatal day 1 (p1) ECs, 1 μM for 24 h): no effect
SMILES: Nc1ncnc2c1c(-c1ccc(Oc3ccccc3)cc1)cn2C1CCCC1 [7-Cyclo, 7-cyclopentyl-5-(4-phenoxy)phenyl-7H-pyrrolo[2,3-d]pyrimidin-4-ylamine]
effect on network length and number of sprouts in microvessels [1]: negligible effect
effect on network length and number of sprouts in microvessels [2]: negligible effect
network length and number of sprouts in microvessels [3]: statistically significant reduction
inflammation, oxidative stress sensing, vascular modulation and vascular injury sensing genes ([4]; mAEC at E12.5, 1 μM for 24 h, versus cells without treatment): statistically up-regulated
